# Values quoted from earlier work as cited in PMC5465828 (Research in Pharmaceutical Sciences, 2017).
# Tested on: human colon carcinoma HCT116 cell line
# Conditions: read-out: IC50 of doxorubicin in HCT116 cells; doxorubicin alone
compound,measurement,value
COc1cccc2c1C(=O)c1c(O)c3c(c(O)c1C2=O)C[C@@](O)(C(=O)CO)C[C@@H]3O[C@H]1C[C@H](N)[C@H](O)[C@H](C)O1 [doxorubicin],IC50,200 nM
